From patent publication US7179937B2, “Cyclopentenone derivatives for cancer therapy” (Dabur Research Foundation, priority 2001, dated 2007)

Key:
Tubulin = experiment: in vitro tubulin polymerization (assembly) assay, absorbance at 340 nm; type: biochemical; settings: tubulin 1 mg/ml, 37° C., pH 6.9; read-out: IC50 values for inhibition of Tubulin Polymerization
Procedure: The cyclopentenone derivatives were checked for their effects on tubulin polymerization in in vitro. Briefly, the tubulin assembly reaction was performed at 37° C. in buffer containing 80 mM PIPES, 1 mM EGTA, 1.0 mM GTP and 1 mM MgCl2 (pH 6.9) at a tubulin concentration of 1 mg/ml in the presence or absence of the cyclopentenone derivatives. The final concentration of the cyclopentenone derivatives in the reaction mixture varied from 1–5 uM. The derivatives were dissolved in 0.1% DMSO. The control experiments were carried out with 0.1% DMSO. The tubulin polymerization was followed by measurement of the absorbance of the solution at 340 nm every 30 seconds. […] Thus the cyclopentenone derivatives mediated their observed anticancer activities by tubulin depolymerization.

VEGF = VEGF levels in endothelial cells (ECV304), ELISA; type: cell-based, human; settings: 5 ug/ml, 4 hours
Procedure: Human endothelial cells (ECV304) were plated at the density of 8–10×10^5 cells per 2 ml in a six well plate. After an overnight incubation of cells at 37° C., cyclopentenone derivatives at a concentration of 5 ug/ml was added to the wells. The untreated wells served as controls. The plates were incubated for 4 hours at 37° C. The medium was collected from all the wells (control and treated) and spun down at 2000 r.p.m to remove the cellular material. The supernatant was collected and used for ELISA (quantikine human VEGF, R&D Systems). The assay employs the quantitative sandwich enzyme immuonoassay technique. A monoclonal antibody specific for VEGF has been pre-coated onto a microplate. Standards and samples were pipetted into the wells and VEGF present was bound by the immobilized antibody. After washing away the unbound substances, an enzyme-linked polyclonal antibody specific for VEGF was added to the wells. Following a wash to remove any unbound antibody-enzyme reagent, a substrate solution was added to the wells and color developed in proportion to the amount of VEGF bound in the initial step. The optical density of each well was determined within 30 minutes using a microplate reader set to 450 nm and reference wavelength at 540 nm. The VEGF levels were inhibited by the addition of cyclopentenone derivatives in vitro.

Caspase-3 = Caspase-3 induction in oral cancer cells (KB), colorimetric DEVD-pNA; type: cell-based, human; settings: 5 ug/ml
Procedure: Human squamous cell carcinoma (KB) were plated in a 25 cm^2 flask. When cultures achieved confluence, the cyclopentenone derivative of structure 20 was added to cells. The final concentration of derivative of the structure 20 in the flask was 5 ug/ml. The untreated wells served as controls. The cells were incubated with the drug for 2 different time points of 6 and 16 hours at 37° C. The cells were collected by centrifugation at 2000 r.p.m. for 10 minutes. The supernatant was gently removed and discarded while Lysis Buffer was added to the cell pellet (25 ul of lysis buffer per 1×10^4 cell). The cell lysate was incubated on ice for 10 minutes and centrifuged at 10,000-×g for 1 minute. The supernatant was transferred to a new tube and kept on ice. 50 ul of the cell lysate was added in a 96 well plate. To this was added 2× Reaction Buffer. Prior to using reaction buffer 10 ul of fresh DTT stock per 1 ml of 2× Reaction Buffer was added. To each well 5 ul of Caspase-3 colorimetric substrate (DEVD-pNA) was added. The plate was incubated for 1–2 hours at 37° C. and read at 405 nm.
The level of caspase enzymatic activity in the cell lysate is directly proportional to the absorbance at 405 nm.

PTC tumor xenografts = experiment: In vivo anti-tumor activity on PTC (colon) xenografted mice; parameters: species or system Balb/c athymic mice; settings: PTC xenograft, intravenously 0.5 mg/100 μL once a day for 14 days
Procedure: PTC tumor xenografts were grown in Balb/c athymic mice by subcutaneous inoculation of a single cell suspension of PTC cells (15×10^6 cells/100 μL). The tumor bearing animals were divided into 2 groups of three animals each including one group comprising untreated control animals. Treatment with compound of formula no. 49 was initiated when the average tumor volumes, as measured using a vernier caliper, were […]. Compound of formula no. 49 was administered intravenously to the assigned group of tumor bearing animals at a dose of 0.5 mg/100 μL once a day and the treatment was continued for a period of 14 days.
The antitumor activity of the compound was monitored by measuring tumor volumes every fourth day using the formula W*W*L*0.4 (W=smaller diameter, L=larger diameter). The percentage inhibition of tumor growth was calculated using the formula (1-tumor volume-treated/tumor volume-control)*100. […] Compound of formula no. […] The percentage inhibition of tumor growth caused compound of formula no. 49 as compared to controls on day 23 was 45.8%.

SMILES | IC50 (Tubulin) [nM] | Percent Reduction in VEGF (VEGF) [%] | other results
COc1ccc(C2=C(c3cc(OC)c(OC)c(OC)c3)C(=O)C(O)C2)cc1 (stereo not shown) [Compound 48] | 2100 ± 100 | – | –
COc1ccc(C2=C(c3cc(OC)c(OC)c(OC)c3)C(=O)CC2O)cc1O (stereo not shown) [Compound 39] | 1400 ± 600 | – | –
COc1ccc(C2=C(c3cc(OC)c(OC)c(OC)c3)C(=NO)CC2OC(C)=O)cc1 (stereo not shown) [Compound 20] | – | 2.0 ± 0.1 | Percent Induction of Caspase-3, 6 hours (Caspase-3; 6 hours): 13.6 ± 2.4%; Percent Induction of Caspase-3, 16 hours (Caspase-3; 16 hours): 20.7 ± 3.1%
COc1ccc(C2=C(c3cc(OC)c(OC)c(OC)c3)C(=O)C(O)C2)cc1O (stereo not shown) [Compound 74] | 1800 ± 500 | – | –
COc1ccc(C2=C(c3cc(OC)c(OC)c(OC)c3)/C(=N\O)C(O)C2)cc1F (stereo not shown) [Compound 66] | 2000 ± 600 | – | –
COc1ccc(C2=C(c3cc(OC)c(OC)c(OC)c3)C(=NO)C(O)C2)cc1 (stereo not shown) [Compound 49] | 2300 ± 500 | 28.6 ± 1.9 | antitumor activity on PTC xenografts (in words) (PTC tumor xenografts): significant antitumor activity
